Measured values as given in patent US7332177B1, “Method and formulation for treating resistance to antihypertensives and related conditions” (Neurim Pharmaceuticals (1991) Ltd., priority 2000, dated 2008).

Columns and labels:
[1] = 2 mg/os daily at 18:00 h for 2 months; adult men; cited from earlier work
[2] = Experiment 1: morning blood pressure after 3 weeks of controlled-release melatonin in elderly insomnia patients; assay type: in vivo, human; details: hypertensive elderly subjects; administration in the evening
Experimental: All patients, who had been insomniacs, were diagnosed according to DSM IV. They consisted of 86 men and 96 women, age 72±9 years. […] During the last week of the treatment period, BP was assessed at the morning and comparisons were made between placebo or melatonin treatments, and baseline.

rabbit aorta = details: high concentrations 10-1000 μM; in vitro; cited from earlier work

COc1ccc2[nH]cc(CCNC(C)=O)c2c1 [melatonin]
mean serum melatonin levels [1]: marked elevation
daytime systolic and diastolic blood pressure [2]: decreased
Vasorelaxing action (rabbit aorta): observed
